Results on 27 compounds are retold here after patent publication US20100317647A1 (priority 2009, published 2010).

SMILES strings stand for the structures.

human Cat S, sequence (P25774 115-331): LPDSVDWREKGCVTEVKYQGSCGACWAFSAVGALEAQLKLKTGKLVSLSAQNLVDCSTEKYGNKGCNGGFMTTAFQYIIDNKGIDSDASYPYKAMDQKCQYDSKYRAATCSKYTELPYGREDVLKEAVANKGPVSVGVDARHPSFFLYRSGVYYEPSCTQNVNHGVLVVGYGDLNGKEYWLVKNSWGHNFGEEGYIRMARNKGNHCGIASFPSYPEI

This assay has as its target human Cat S (Homo sapiens, UniProt P25774). The assay can be described thus: Cathepsin enzyme inhibition assay (fluorogenic peptide substrate cleavage). The note with it: human Cat S 1 nM; substrate Z-Val-Val-Arg-AMC 20 μM; pH 6.5; fluorescence over 20 minutes. In kind it is biochemical. The method, boiled down: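 IC50 values derived from fluorescence increase (ex 360 nm, em 465 nm) monitored for 20 minutes after substrate addition. Enzyme held at 1 nM with 20 μM Z-Val-Val-Arg-AMC, in pH 6.5 potassium phosphate buffer containing DTT, EDTA and Triton X-100.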
In turn, `CO[C@@H]1C[C@H](S(=O)(=O)c2ccc(-n3cccn3)cc2Cl)C[C@H]1C(=O)NC1(C#N)CC1` (racemic) [Example 59, (1R,2R,4R) and (1S,2S,4S)-4-(2-Chloro-4-pyrazol-1-yl-benzenesulfonyl)-2-methoxy-cyclopentanecarboxylic acid (1-cyano-cyclopropyl)-amide] showed an IC50 of 4 nM.

With `N#CC1(NC(=O)[C@@H]2C[C@@H](S(=O)(=O)c3ccccc3)C[C@H]2C(=O)N2CC(O)C2)CC1` [Example 15, (1R,2R,4R)-4-Benzenesulfonyl-2-(3-hydroxy-azetidine-1-carbonyl)-cyclopentanecarboxylic acid (1-cyano-cyclopropyl)-amide], half-maximal inhibition (IC50) required 7.4 nM.

With `COC[C@@H]1C[C@H](S(=O)(=O)c2ccccc2Cl)C[C@H]1C(=O)NC1(C#N)CC1` (single isomer, unassigned) [Example 105], the IC50 came to 22.3 nM.

Turning to `N#CCNC(=O)[C@@H]1C[C@@H](S(=O)(=O)c2ccccc2)C[C@H]1C(=O)N1CCOCC1` [Example 1, (1R,2R,4R)-4-Benzenesulfonyl-2-(morpholine-4-carbonyl)-cyclopentanecarboxylic acid cyanomethyl-amide], 0.6 nM corresponded to half-maximal inhibition (IC50).

In turn, `CO[C@@H]1C[C@H](S(=O)(=O)c2ccc(-c3ccnc(C)c3)cc2C(F)(F)F)C[C@H]1C(=O)NC1(C#N)CC1` [Example 139, (1R,2R,4R)-2-Methoxy-4-[4-(2-methyl-pyridin-4-yl)-2-trifluoromethyl-benzenesulfonyl]-cyclopentanecarboxylic acid (1-cyano-cyclopropyl)-amide] returned an IC50 of 0.3 nM.

Compound `N#CC1(NC(=O)[C@H]2CC[C@H](S(=O)(=O)c3ccc(OCC(F)(F)F)cc3Cl)C2)CC1` (single isomer, unassigned) [Example 98] returned an IC50 of 160 nM.

In the case of `N#CC1(NC(=O)[C@@H]2C[C@@H](S(=O)(=O)c3ccccc3)C[C@H]2C(=O)N2CCS(=O)(=O)CC2)CC1` [Example 20, (1R,2R,4R)-4-Benzenesulfonyl-2-(1,1-dioxo-1-thiomorpholine-4-carbonyl)-cyclopentanecarboxylic acid (1-cyano-cyclopropyl)-amide], the IC50 turned out to be 4.3 nM.

`COC1CN(C(=O)[C@@H]2C[C@H](S(=O)(=O)c3ccccc3)C[C@H]2C(=O)NC2(C#N)CC2)C1` [Example 22, (1R,2R,4R)-4-Benzenesulfonyl-2-(3-methoxy-azetidine-1-carbonyl)-cyclopentanecarboxylic acid (1-cyano-cyclopropyl)-amide]: the IC50 was 5.5 nM.

`N#CC1(NC(=O)[C@@H]2C[C@@H](S(=O)(=O)c3ccccc3Cl)C[C@H]2OCc2ccc(Br)cc2)CC1` (racemic) [Example 154, (1R,2R,4R) and (1S,2S,4S)-2-(4-Bromo-benzyloxy)-4-(2-chloro-benzenesulfonyl)-cyclopentanecarboxylic acid (1-cyano-cyclopropyl)-amide] showed an IC50 of 7.55 nM.

Compound `N#CC1(NC(=O)[C@@H]2C[C@@H](S(=O)(=O)c3ccccc3C(F)(F)F)C[C@H]2OC2CCC2)CC1` (racemic) [Example 220, (1R,2R,4R) and (1S,2S,4S)-2-Cyclobutoxy-4-(2-trifluoromethyl-benzenesulfonyl)-cyclopentanecarboxylic acid (1-cyano-cyclopropyl)-amide] registered an IC50 of 3.6 nM.

`CO[C@@H]1C[C@H](S(=O)(=O)c2ccc(-c3cnn(CC(N)=O)c3)cc2C(F)(F)F)C[C@H]1C(=O)NC1(C#N)CC1` (racemic) [Example 194, (1R,2R,4R) and (1S,2S,4S)-4-[4-(1-Carbamoylmethyl-1H-pyrazol-4-yl)-2-trifluoromethyl-benzenesulfonyl]-2-methoxy-cyclopentanecarboxylic acid (1-cyano-cyclopropyl)-amide]: the midpoint of inhibition, the IC50, lay at 0.713 nM.

`N#CCNC(=O)[C@@H]1C[C@H](S(=O)(=O)c2ccccc2Cl)C[C@H]1COc1ccc(Cl)cc1` (single isomer, unassigned) [Example 69] returned an IC50 of 810 nM.

Regarding `CC1CCN(C(=O)[C@@H]2C[C@H](S(=O)(=O)c3ccccc3)C[C@H]2C(=O)NC2(C#N)CC2)CC1` [Example 19, (1R,2R,4R)-4-Benzenesulfonyl-2-(4-methyl-piperidine-1-carbonyl)-cyclopentanecarboxylic acid (1-cyano-cyclopropyl)-amide], 0.5 nM corresponded to half-maximal inhibition (IC50).

Regarding `N#CC1(NC(=O)[C@@H]2C[C@@H](S(=O)(=O)c3ccccc3C(F)(F)F)C[C@H]2OC2CCCC2)CC1` (racemic) [Example 221, (1R,2R,4R) and (1S,2S,4S)-2-Cyclopentyloxy-4-(2-trifluoromethyl-benzenesulfonyl)-cyclopentanecarboxylic acid (1-cyano-cyclopropyl)-amide], the IC50 was determined as 8.35 nM.

For `N#CC1(NC(=O)[C@H]2CC[C@H](S(=O)(=O)c3ccc(F)cc3Cl)C2)CC1` (racemic) [Example 92, (1S,3S) and (1R,3R)-3-(2-Chloro-4-fluoro-benzenesulfonyl)-cyclopentanecarboxylic acid (1-cyano-cyclopropyl)-amide], the IC50 turned out to be 385 nM.

Compound `CO[C@@H]1C[C@H](S(=O)(=O)c2ccc(N3CCC(O)CC3)cc2C(F)(F)F)C[C@H]1C(=O)NC1(C#N)CC1` (racemic) [Example 207, (1R,2R,4R) and (1S,2S,4S)-4-[4-(4-Hydroxy-piperidin-1-yl)-2-trifluoromethyl-benzenesulfonyl]-2-methoxy-cyclopentanecarboxylic acid (1-cyano-cyclopropyl)-amide] came in with an IC50 of 0.895 nM.

On to `N#CC1(NC(=O)C2CC(S(=O)(=O)c3ccc(-n4cccn4)cc3C(F)(F)F)CC2C(=O)N2CC(F)(F)C2)CC1` (stereo not drawn) [Example 128, 2-(3,3-Difluoro-azetidine-1-carbonyl)-4-(4-pyrazol-1-yl-2-trifluoromethyl-benzenesulfonyl)-cyclopentanecarboxylic acid (1-cyano-cyclopropyl)-amide], for which half-maximal inhibition (IC50) required 0.7 nM.

As for `CC(C)O[C@@H]1C[C@H](S(=O)(=O)c2ccc(Br)cc2C(F)(F)F)C[C@H]1C(=O)NC1(C#N)CC1` (racemic) [Example 112, (1R,2R,4R) and (1S,2S,4S)-4-(4-Bromo-2-trifluoromethyl-benzenesulfonyl)-2-isopropoxy-cyclopentanecarboxylic acid (1-cyano-cyclopropyl)-amide], the IC50 was 0.6 nM.

Consider `CCOC1CN(C(=O)[C@@H]2C[C@H](S(=O)(=O)c3ccccc3)C[C@H]2C(=O)NC2(C#N)CC2)C1` [Example 21, (1R,2R,4R)-4-Benzenesulfonyl-2-(3-ethoxy-azetidine-1-carbonyl)-cyclopentanecarboxylic acid (1-cyano-cyclopropyl)-amide], for which the IC50 was 4.9 nM.

As to `CO[C@@H]1C[C@H](S(=O)(=O)c2ccc(-c3ccc(C)nc3)cc2C(F)(F)F)C[C@H]1C(=O)NC1(C#N)CC1` (racemic) [Example 81, (1R,2R,4R) and (1S,2S,4S)-2-Methoxy-4-[4-(6-methyl-pyridin-3-yl)-2-trifluoromethyl-benzenesulfonyl]-cyclopentanecarboxylic acid (1-cyano-cyclopropyl)-amide], the IC50 is 0.6 nM.

`CCO[C@@H]1C[C@H](S(=O)(=O)c2ccc(-c3ccnc(C)c3)cc2C(F)(F)F)C[C@H]1C(=O)NC1(C#N)CC1` (racemic) [Example 114, (1R,2R,4R) and (1S,2S,4S)-2-Ethoxy-4-[4-(2-methyl-pyridin-4-yl)-2-trifluoromethyl-benzenesulfonyl]-cyclopentanecarboxylic acid (1-cyano-cyclopropyl)-amide] gave an IC50 of 0.3 nM.

For `CO[C@@H]1C[C@H](S(=O)(=O)c2ccc(N3CCN(CC(F)(F)F)CC3)cc2C(F)(F)F)C[C@H]1C(=O)NC1(C#N)CC1` (racemic) [Example 193, (1R,2R,4R) and (1S,2S,4S)-2-Methoxy-4-{4-[4-(2,2,2-trifluoro-ethyl)-piperazin-1-yl]-2-trifluoromethyl-benzenesulfonyl}-cyclopentanecarboxylic acid (1-cyano-cyclopropyl)-amide], the midpoint of inhibition, the IC50, lay at 1.67 nM.

`Cc1cc(-c2ccc(S(=O)(=O)[C@@H]3C[C@@H](C(=O)NC4(C#N)CC4)[C@H](C(=O)N4CC(F)(F)C4)C3)c(C(F)(F)F)c2)ccn1` [Example 121, (1R,2R,4R)-2-(3,3-Difluoro-azetidine-1-carbonyl)-4-[4-(2-methyl-pyridin-4-yl)-2-trifluoromethyl-benzenesulfonyl]-cyclopentanecarboxylic acid (1-cyano-cyclopropyl)-amide] returned a half-maximal inhibitory concentration (IC50) of 0.2 nM.

The compound `N#CC1(NC(=O)[C@@H]2C[C@@H](S(=O)(=O)c3ccccc3Cl)C[C@H]2OCc2ccc(Cl)c(Cl)c2)CC1` (racemic) [Example 250, (1R,2R,4R) and (1S,2S,4S)-4-(2-Chloro-benzenesulfonyl)-2-(3,4-dichloro-benzyloxy)-cyclopentanecarboxylic acid (1-cyano-cyclopropyl)-amide] came in with an IC50 of 62.5 nM.

`CC(C)OC[C@@H]1C[C@H](S(=O)(=O)c2ccc(F)cc2Cl)C[C@H]1C(=O)NC1(C#N)CC1` [Example 156, (1R,2R,4S)-4-(2-Chloro-4-fluoro-benzenesulfonyl)-2-isopropoxymethyl-cyclopentanecarboxylic acid (1-cyano-cyclopropyl)-amide]: 31.5 nM corresponded to half-maximal inhibition (IC50).

`N#CCNC(=O)[C@@H]1C[C@@H](S(=O)(=O)Cc2ccccc2)C[C@H]1C(=O)N1CCOCC1` [Example 38, (1R,2R,4R)-2-(Morpholine-4-carbonyl)-4-phenylmethanesulfonyl-cyclopentanecarboxylic acid cyanomethyl-amide] yielded an IC50 of 533 nM.

In turn, `N#CC1(NC(=O)[C@@H]2C[C@@H](S(=O)(=O)c3ccc(Br)cc3C(F)(F)F)C[C@H]2C(=O)N2CC(F)(F)C2)CC1` [Example 117, (1R,2R,4R)-4-(4-Bromo-2-trifluoromethyl-benzenesulfonyl)-2-(3,3-difluoro-azetidine-1-carbonyl)-cyclopentanecarboxylic acid (1-cyano-cyclopropyl)-amide] displayed an IC50 of 1.1 nM.

As usually defined, the IC50 is the midpoint of a concentration-inhibition curve.
